Assay results as given in PubChem BioAssay AID248 (DTP/NCI, 2004).
Several values for one entry are separate records, joined by “and”; a condition that tells them apart may be missing. Equal values may be shown once. Toxic doses and inconclusive results are not listed. Rule as the data show it: active = T/C of 150% or more; inactive = T/C below 125%.

Test system: L1210 leukemia ip in BDF1 mice, survival T/C
Test: NCI In Vivo Anticancer Drug Screen. Data for tumor model L1210 Leukemia (intraperitoneal) in B6D2F1 (BDF1) mice
Conditions: endpoint: mean survival time, higher = longer survival
Method in brief: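 Tumor cells were implanted, animals were treated, and survival was followed. The result divides the treated measurement by the vehicle-control measurement.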

[1] = dose: 100.0 mg/kg/injection, schedule: Q04DX003 (ip), vehicle: steriod suspending solution
[2] = dose: 200.0 mg/kg/injection, schedule: Q04DX003 (ip), vehicle: steriod suspending solution
[3] = dose: 400.0 mg/kg/injection, schedule: Q04DX003 (ip), vehicle: steriod suspending solution
[4] = dose: 100.0 mg/kg/injection, schedule: Q04DX003 (ip), vehicle: Klucel (hydroxypropylcellulose) (HPC)
[5] = dose: 100.0 mg/kg/injection, schedule: Q01DX001 (ip), vehicle: saline with Tween-80
[6] = dose: 200.0 mg/kg/injection, schedule: Q01DX001 (ip), vehicle: saline with Tween-80
[7] = dose: 100.0 mg/kg/injection, schedule: Q01DX009 (ip), vehicle: Klucel (hydroxypropylcellulose) (HPC)
[8] = dose: 200.0 mg/kg/injection, schedule: Q01DX009 (ip), vehicle: Klucel (hydroxypropylcellulose) (HPC)
[9] = dose: 400.0 mg/kg/injection, schedule: Q01DX009 (ip), vehicle: Klucel (hydroxypropylcellulose) (HPC)
[10] = dose: 100.0 mg/kg/injection, schedule: Q04DX002 (ip), vehicle: Klucel (hydroxypropylcellulose) (HPC)
[11] = dose: 200.0 mg/kg/injection, schedule: Q04DX002 (ip), vehicle: Klucel (hydroxypropylcellulose) (HPC)
[12] = dose: 400.0 mg/kg/injection, schedule: Q04DX002 (ip), vehicle: Klucel (hydroxypropylcellulose) (HPC)
[13] = dose: 100.0 mg/kg/injection, schedule: Q04DX002 (ip), vehicle: saline with Tween-80
[14] = dose: 200.0 mg/kg/injection, schedule: Q04DX002 (ip), vehicle: saline with Tween-80
[15] = dose: 400.0 mg/kg/injection, schedule: Q04DX002 (ip), vehicle: saline with Tween-80

Measured: T/C

C[C@]12CC[C@H](O)CC1=CC[C@@H]1[C@@H]2CC[C@]2(C)c3nc4ccccc4cc3C[C@@H]12
inactive: dose: 15.6 mg/kg/injection, schedule: Q01DX Z (sc), vehicle: steriod suspending solution 94 % of control | dose: 31.3 mg/kg/injection, schedule: Q01DX Z (sc), vehicle: steriod suspending solution 93 % of control | dose: 62.5 mg/kg/injection, schedule: Q01DX Z (sc), vehicle: steriod suspending solution 94 % of control | dose: 100.0 mg/kg/injection, schedule: Q01DX009 (sc), vehicle: steriod suspending solution 94 % of control | [1] 98 % of control | dose: 125.0 mg/kg/injection, schedule: Q01DX Z (sc), vehicle: steriod suspending solution 96 % of control | dose: 200.0 mg/kg/injection, schedule: Q01DX009 (sc), vehicle: steriod suspending solution 92 % of control | [2] 107 % of control | dose: 250.0 mg/kg/injection, schedule: Q01DX Z (sc), vehicle: steriod suspending solution 104 % of control | dose: 400.0 mg/kg/injection, schedule: Q01DX009 (sc), vehicle: steriod suspending solution 89 % of control | [3] 106 % of control | dose: 500.0 mg/kg/injection, schedule: Q01DX Z (sc), vehicle: steriod suspending solution 94 % of control

c1ccc2c(c1)ccc1[nH]c3ccc4ccccc4c3c12
inactive: dose: 12.5 mg/kg/injection, schedule: Q01DX009 (ip), vehicle: Klucel (hydroxypropylcellulose) (HPC) 109 % of control | dose: 25.0 mg/kg/injection, schedule: Q01DX009 (ip), vehicle: Klucel (hydroxypropylcellulose) (HPC) 93 % of control | dose: 25.0 mg/kg/injection, schedule: Q04DX003 (ip), vehicle: Klucel (hydroxypropylcellulose) (HPC) 107 % of control | dose: 50.0 mg/kg/injection, schedule: Q04DX003 (ip), vehicle: Klucel (hydroxypropylcellulose) (HPC) 86 % of control | [4] 97 % of control

CC(=O)c1c(C)[nH]c(C(=O)O)c1C
inactive: [5] 103 % of control | [6] 100 % of control | dose: 400.0 mg/kg/injection, schedule: Q01DX001 (ip), vehicle: saline with Tween-80 90 % of control

CN1C(=O)CN=C(c2ccc[nH]2)c2cc(Cl)ccc21 (tested in a mixture with another compound)
inactive: [7] 96 % of control | [4] 103 % of control | [8] 91 % of control | dose: 200.0 mg/kg/injection, schedule: Q04DX003 (ip), vehicle: Klucel (hydroxypropylcellulose) (HPC) 102 % of control | dose: 400.0 mg/kg/injection, schedule: Q04DX003 (ip), vehicle: Klucel (hydroxypropylcellulose) (HPC) 105 % of control

CCCCCCCCC1CCC2C3CCC4CC(C(=O)O)C(C(=O)O)CC4(C)C3CCC12C (stereo not drawn)
inactive: [5] 86 % of control | [6] 87 % of control

CC1C(Br)C(=O)NC(=O)N1Cc1ccccc1 (stereo not drawn)
inactive: dose: 100.0 mg/kg/injection, schedule: Q01DX Z (ip), vehicle: methylcellulose (MC) 92 % of control | dose: 200.0 mg/kg/injection, schedule: Q01DX Z (ip), vehicle: methylcellulose (MC) 94 % of control

Cc1nc(SCc2ccc(Cl)cc2)[nH]c(=O)c1CC(C)O (stereo not drawn)
inactive: dose: 100.0 mg/kg/injection, schedule: Q04DX003 (ip), vehicle: saline 97 % of control | dose: 200.0 mg/kg/injection, schedule: Q04DX003 (ip), vehicle: saline 89 % of control | dose: 400.0 mg/kg/injection, schedule: Q04DX003 (ip), vehicle: saline 89 % of control

CN(C)c1ccc(C(=O)/C=C/c2ccc([N+](=O)[O-])cc2)cc1
inactive: [7] 87 % of control | [8] 97 % of control | [9] 86 % of control

CCOC(=O)C1(C(=O)OCC)CC(C)C(=O)N1c1ccccc1OC (stereo not drawn)
inactive: [10] 100 % of control | [11] 89 % of control | [12] 100 % of control

Cc1cc(C)c(S(=O)(=O)CC(Cl)c2ccccc2)c(C)c1 (stereo not drawn)
inactive: dose: 100.0 mg/kg/injection, schedule: Q01DX001 (ip), vehicle: acetone 95 % of control | dose: 100.0 mg/kg/injection, schedule: Q04DX003 (ip), vehicle: acetone 103 % of control | dose: 200.0 mg/kg/injection, schedule: Q01DX001 (ip), vehicle: acetone 97 % of control | dose: 200.0 mg/kg/injection, schedule: Q04DX003 (ip), vehicle: acetone 97 % of control | dose: 400.0 mg/kg/injection, schedule: Q01DX001 (ip), vehicle: acetone 93 % of control | dose: 400.0 mg/kg/injection, schedule: Q04DX003 (ip), vehicle: acetone 97 % of control

CCCCNC(=O)OCc1cnc(C)n1Cc1ccccc1
inactive: dose: 25.0 mg/kg/injection, schedule: Q01DX009 (ip), vehicle: other 93 % of control and 107 % of control | dose: 100.0 mg/kg/injection, schedule: Q01DX001 (ip), vehicle: carboxymethylcellulose (CMC) 104 % of control | [10] 94 % of control | dose: 100.0 mg/kg/injection, schedule: Q04DX002 (ip), vehicle: other 96 % of control and 105 % of control | dose: 200.0 mg/kg/injection, schedule: Q01DX001 (ip), vehicle: carboxymethylcellulose (CMC) 108 % of control | [11] 98 % of control | dose: 200.0 mg/kg/injection, schedule: Q04DX002 (ip), vehicle: other 93 % of control and 86 % of control | [12] 94 % of control

C=C(NC(=O)C(NC(=O)C(CCCCN)NC(=O)C1CSC(C)C2NC(=O)C(CC(C)C)NC(=O)C(NC(=O)C(CCC(N)=O)NC(=O)C(CC(C)C)NC(=O)C(Cc3ccccc3)NC(=O)C3CSC(C)C(NC(=O)C(NC(=O)C4CSC(C)C(NC(=O)C5CSCC(NC(=O)C(CCCCN)NC(=O)C(N)Cc6c[nH]c7ccccc67)C(=O)NC(CCC(=O)O)C(=O)NC(=C)C(=O)NC(CC(C)C)C(=O)N5)C(=O)N5CCCC5C(=O)NCC(=O)N4)C(C)C)C(=O)NCC(=O)NC(C)C(=O)NC(CC(C)C)C(=O)NC(CCC(N)=O)C(=O)N/C(=C/C)C(=O)N3)C(C)SCC(NC2=O)C(=O)NC(CC(N)=O)C(=O)N1)C(C)CC)C(=O)NC(CCCCN)C(=O)O (stereo not drawn)
inactive: [13] 108 % of control | [14] 94 % of control | [15] 92 % of control

CC(=O)c1cccc(NC(=O)OC2CCCC(C)C2)c1 (stereo not drawn)
inactive: [7] 93 % of control | [8] 101 % of control | [9] 97 % of control

CCCCC(=O)N/N=C/C=C/c1ccccc1[N+](=O)[O-]
inactive: dose: 100.0 mg/kg/injection, schedule: Q01DX001 (ip), vehicle: saline 97 % of control | dose: 200.0 mg/kg/injection, schedule: Q01DX001 (ip), vehicle: saline 105 % of control | dose: 400.0 mg/kg/injection, schedule: Q01DX001 (ip), vehicle: saline 105 % of control

CCOc1cc(-c2ccc(OC)cc2)nc(N)n1
inactive: [13] 91 % of control | [14] 97 % of control | [15] 91 % of control

CC(=O)OCC(=O)[C@@]1(O)CC[C@H]2[C@@H]3C[C@@H](C)C4=CC(=O)C=C[C@]4(C)[C@H]3[C@@H](O)C[C@@]21C
inactive: dose: 75.0 mg/kg/injection, schedule: Q01DX009 (sc), vehicle: steriod suspending solution 92 % of control | [1] 97 % of control | dose: 100.0 mg/kg/injection, schedule: Q04DX003 (sc), vehicle: steriod suspending solution 100 % of control | dose: 150.0 mg/kg/injection, schedule: Q01DX009 (sc), vehicle: steriod suspending solution 92 % of control | [2] 91 % of control | dose: 200.0 mg/kg/injection, schedule: Q04DX003 (sc), vehicle: steriod suspending solution 102 % of control | dose: 300.0 mg/kg/injection, schedule: Q01DX009 (sc), vehicle: steriod suspending solution 92 % of control | [3] 94 % of control | dose: 400.0 mg/kg/injection, schedule: Q04DX003 (sc), vehicle: steriod suspending solution 103 % of control
